The compounds below were run on Erysiphe graminis f.sp. tritici (assay: Erysiphe test (wheat)/curative). Conditions: curative, sprayed 48 hours after inoculation, application rate 25 g/ha, evaluation 7 days after inoculation.
Assay type: in vivo
Method: Erysiphe Test (Wheat)/Curative
To prepare a suitable preparation of active compound, a commercial formulation of active compound is diluted with water to the desired concentration.
To test for curative activity, young plants were dusted with spores of Erysiphe graminis f.sp. tritici. 48 hours after the inoculation, the plants were sprayed with the preparation of active compound at the stated application rates.
The plants were placed in a greenhouse at a temperature of about 20° C. and a relative atmospheric humidity of about 80% to promote the development of mildew pustules.
Evaluation was carried out 7 days after the inoculation. 0% means an efficacy which corresponds to that of the control, whereas an efficacy of 100% means that no infection is observed.

Row | Structure (SMILES) | efficacy in % found
1 | CCOC(=O)C1=NN(c2ccc(Cl)cc2Cl)C(C)(C(=O)OCC)C1 (stereo not drawn) [Mefenpyr, diethyl 1-(2,4-dichlorophenyl)-4,5-dihydro-5-methyl-1H-pyrazole-3,5-dicarboxylate] | 0%

Same assay, conditions: curative, sprayed 48 hours after inoculation, application rate 125 g/ha, evaluation 7 days after inoculation

Row | Structure (SMILES) | efficacy in % found
2 | CC(C)(C)C(O)(CCc1ccc(Cl)cc1)Cn1cncn1 (stereo not drawn) [Tebuconazole, tebuconazole] | 57%
3 | CO/N=C(/C1=NOCCO1)c1ccccc1Oc1ncnc(Oc2ccccc2Cl)c1F [Fluoxastrobin, fluoxastrobin] | 0%
4 | CCCN(CC)CC1COC2(CCC(C(C)(C)C)CC2)O1 (stereo not drawn) [Spiroxamin, spiroxamine] | 0%
5 | CO/N=C(/C(=O)OC)c1ccccc1CO/N=C(\C)c1cccc(C(F)(F)F)c1 [Trifloxystrobin, trifloxystrobin] | 86%
6 | OC(Cc1ccccc1Cl)(Cn1nc[nH]c1=S)C1(Cl)CC1 (stereo not drawn) [Prothioconazole, prothioconazole] | 43%

Reference: US9155312B2, “Fungicidal combinations of active ingredients” (Bayer Intellectual Property GmbH, priority 2004, dated 2015)
